Measurements reported in ChEMBL document CHEMBL3044679, “Synthesis and biological evaluation of some stilbene derivatives” (Med Chem Res, 2011).
Values after ≈ are worked out from the molar mass of the structure shown.

What was measured:
Format in all cases: functional, cell-based
CCRF-CEM = assay: Cytostatic activity against Homo sapiens (human) CEM cells after 72 hr by coulter counter analysis
MOLT-4 = assay: Cytostatic activity against Homo sapiens (human) Molt4/C8 cells after 72 hr by coulter counter analysis; settings: MOLT-4, 72 h
L1210 = assay: Cytostatic activity against Mus musculus (mouse) L1210 cells after 48 hr by coulter counter analysis; settings: L1210, 48 h

Compound | IC50 (CCRF-CEM) [µg/mL] | IC50 (MOLT-4) [µg/mL] | IC50 (L1210) [µg/mL]
O=C(O)/C(=C/c1ccccc1Cl)c1ccccc1 | 93 (≈ 359 µM) | 37 (≈ 143 µM) | 76 (≈ 294 µM)
O=C(O)/C(=C/c1ccccc1F)c1ccccc1 | > 200 | 89 (≈ 367 µM) | > 200
CNC(=O)/C(=C/c1ccccc1Cl)c1ccccc1 | 60 (≈ 221 µM) | 77 (≈ 283 µM) | 65 (≈ 239 µM)
CNC(=O)/C(=C/c1ccc(OC)cc1)c1ccccc1 | 128 (≈ 479 µM) | 166 (≈ 621 µM) | 68 (≈ 254 µM)
CCN(CC)C(=O)/C(=C/c1ccccc1Cl)c1ccccc1 | 18 (≈ 57.4 µM) | 14 (≈ 44.6 µM) | 24 (≈ 76.5 µM)
CCNC(=O)/C(=C/c1ccccc1)c1ccccc1 | 26 (≈ 103 µM) | 112 (≈ 446 µM) | 132 (≈ 525 µM)
CCNC(=O)/C(=C/c1ccc(OC)cc1)c1ccccc1 | 116 (≈ 412 µM) | 150 (≈ 533 µM) | 148 (≈ 526 µM)
CNC(=O)/C(=C/c1ccccc1F)c1ccccc1 | 89 (≈ 349 µM) | 72 (≈ 282 µM) | 85 (≈ 333 µM)
CNC(=O)/C(=C/c1ccccc1O)c1ccccc1 | > 200 | > 200 | > 200
COC(=O)/C(=C/c1ccccc1Cl)c1ccccc1 | 19 (≈ 69.7 µM) | 16 (≈ 58.7 µM) | 25 (≈ 91.7 µM)
COC(=O)/C(=C/c1ccc(OC)cc1)c1ccccc1 | 71 (≈ 265 µM) | 71 (≈ 265 µM) | 66 (≈ 246 µM)
Fc1ccc(/N=C/c2ccccc2Cl)cc1Cl | 10 (≈ 37.3 µM) | 3.9 (≈ 14.5 µM) | 6.4 (≈ 23.9 µM)
Fc1ccc(/N=C/c2ccccc2Cl)cc1 | 2.1 (≈ 8.99 µM) | 0.77 (≈ 3.3 µM) | 6 (≈ 25.7 µM)
Clc1ccccc1/C=N/c1ccc(Br)cc1 | 4.5 (≈ 15.3 µM) | 1.5 (≈ 5.09 µM) | 2.1 (≈ 7.13 µM)
Fc1ccc(/N=C/c2cccs2)cc1Cl | 25 (≈ 104 µM) | 16 (≈ 66.7 µM) | 3.2 (≈ 13.3 µM)
COc1ccc(/C=C/c2ccc(F)cc2)cc1 | 156 (≈ 683 µM) | > 200 | 26 (≈ 114 µM)
Fc1ccc(/C=C/c2ccccc2F)cc1 | 83 (≈ 384 µM) | 61 (≈ 282 µM) | 62 (≈ 287 µM)
Cc1ccc(/C=C/c2ccccc2F)cc1 | 78 (≈ 367 µM) | 30 (≈ 141 µM) | 72 (≈ 339 µM)
Fc1ccc(/C=C/c2ccccc2)cc1 | > 200 | > 200 | > 200
COc1ccc(/C=C/c2ccc(C)cc2)cc1 | > 200 | > 200 | > 200
O=C(O)/C(=C/c1ccccc1O)c1ccccc1 | > 200 | > 200 | > 200
Cc1ccc(/C=C/c2ccc(N(C)C)cc2)cc1 | > 200 | > 200 | 143 (≈ 602 µM)
N[C@@H](Cc1ccc(N(CCCl)CCCl)cc1)C(=O)O [MELPHALAN] | 2.5 (≈ 8.19 µM) | 3.2 (≈ 10.5 µM) | 2.1 (≈ 6.88 µM)
